{
  "source": "patent US20240285630A1",
  "about": "“Methods and compositions for improving exercise performance” (MEZZION PHARMA CO., LTD., priority 2021, published 2024)",
  "test_system": "adolescents with Fontan physiology",
  "test": "FUEL Trial echocardiographic myocardial performance index (MPI), blood pool Doppler",
  "format": "in vivo, human",
  "description": "Generally speaking, MPI (also referred to as the Doppler-derived index or Tei Index) is a measure of ventricular systolic and diastolic function as determined by a focused echocardiogram. It combines systolic and diastolic time intervals to assess heart function. More specifically, MPI can be used to assess ventricular performance represented by a numeric value using cardiac time intervals. This numeric value equals the sum of isovolumetric contraction time (ICT) and isovolumetric relaxation time (IRT) divided by ejection time (ET) and can be determined for either the left or right ventricle. Pellett, A. A., et al.: The Tei Index: Methodology and Disease. State Values. Echocardiography: A Jrnl. of CV Ultrasound & Allied Tech. 21(7):669-672 (2004); and Ulugay, A., Tatli E.: Myocardial performance index. Anadolu Kardiyol Derg. 8(2):143-8 (April 2008), both of which are incorporated herein by reference in their entireties. In the FUEL Trial, the MPI measured the performance of the single functioning ventricle. Thus, the MPI results from the FUEL Trial were determined by velocities obtained from blood pool Doppler assessment of the inflow and outflow tract of the functioning single ventricle. In other words, the FUEL Trial MPI was determined by measuring the cardiac time intervals using pulsed-wave Doppler velocity spectra of the ventricular inflow and outflow of the single functioning ventricle.\nEchocardiograms were performed by sonographers with specific training for this protocol. The primary outcome of interest was MPI using Doppler-based measures of inflow and outflow duration. The duration of inflow into the dominant ventricle and outflow across the dominant semilunar valve were measured and used to calculate MPI using the standard formula. Tei C, Ling L H, Hodge D O, et al.: New index of combined systolic and diastolic myocardial performance: a simple and reproducible measure of cardiac function-a study in normals and dilated cardiomyopathy. J Cardiol, 26(6):357-66 (1995); and Pellet A A et al.: The Tei Index: Methodology and Disease State Values. Echocardiography: A Jrnl Of CV Ultrasound & Allied Tech, 21(7):669-672 (2004). Additional tissue Doppler images were obtained and used to calculate the tissue Doppler based MPI as previously described. Harada K, Tamura M, Toyono M et al.: Comparison of the right ventricular Tei index by tissue Doppler imaging to that obtained by pulsed Doppler in children without heart disease. Am J Cardiol, 90(5):566-9 (2002).\nWhenever possible, three measurements were made and the mean duration was used for the calculation.\nEach subject underwent an echocardiogram at the start and finish of the 26 weeks. […] Table 3. […] The change in the MPI was determined by velocities obtained from blood pool Doppler assessment of the inflow and outflow tract of the single functioning dominant ventricle. All measurements were made by the echocardiography core lab at the Children's Hospital of Wisconsin.",
  "data": [
    {"smiles": "CCCOc1ccc(S(=O)(=O)NCCC2CCCN2C)cc1-c1nc2c(CCC)nn(C)c2c(=O)[nH]1", "note": "(centres unmarked) [Udenafil, udenafil]", "values": [
      {"measurement": "MPI, median of the difference Week 26 - baseline", "setting": "ITT population", "value": "−0.01"},
      {"measurement": "MPI difference Week 26 - baseline, LS Mean Dif A − B (SE), udenafil minus placebo", "setting": "ITT population, ANCOVA", "value": "−0.03 (0.014)"},
      {"measurement": "MPI at Week 26, LS Mean Dif A − B (SE), udenafil minus placebo", "setting": "ITT population, ANOVA", "value": "−0.04 (0.018)"},
      {"measurement": "MPI at Week 26, mean", "setting": "ITT population, N=146", "value": "146: 0.42"},
      {"measurement": "MPI, difference Week 26 - baseline, mean", "setting": "all participants with paired data n=122, decrease shows improvement, p=0.028 vs placebo", "value": "−0.02"},
      {"measurement": "MPI, difference in change (treatment - placebo)", "setting": "baseline peak VO2 <80% predicted, N=189", "value": "−0.04"},
      {"measurement": "MPI, difference in change (treatment - placebo)", "setting": "baseline peak VO2 ≥80% predicted, N=60", "value": 0.01},
      {"measurement": "MPI, 26 week - baseline", "setting": "excluding those with baseline peak VO2 ≥80% predicted, n=94", "value": "−0.03"}
    ]}
  ]
}
